Consider five compounds from publication PMC2882332, “Species Used for Drug Testing Reveal Different Inhibition Susceptibility for 17beta-Hydroxysteroid Dehydrogenase Type 1” (PLoS ONE, 2010).

Common to all, as to type: biochemical
One test concerns the target T1, rat 17β-HSD 1 (Rattus norvegicus, UniProt P51657).
T1 construct: Full length cDNAs of several 17β-HSDs type 1 originating from different species were cloned; made in house; host or cells: E.coli BL21 DE3 Codon Plus RP
T1 sequence (P51657 1-344): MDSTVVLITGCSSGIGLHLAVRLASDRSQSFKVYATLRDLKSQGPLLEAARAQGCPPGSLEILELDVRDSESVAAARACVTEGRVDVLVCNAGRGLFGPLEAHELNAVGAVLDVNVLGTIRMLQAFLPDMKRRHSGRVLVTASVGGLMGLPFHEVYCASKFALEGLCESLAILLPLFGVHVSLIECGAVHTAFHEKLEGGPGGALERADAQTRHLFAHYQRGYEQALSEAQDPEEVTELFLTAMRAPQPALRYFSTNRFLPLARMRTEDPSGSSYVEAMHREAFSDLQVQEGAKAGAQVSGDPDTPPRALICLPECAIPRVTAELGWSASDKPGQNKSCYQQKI
Kind of test: In vitro enzymatic activity, recombinant rat 17β-HSD 1. Conditions: 2 µM compound, 15 nM 3H-estrone, read-out: Observed % inhibition. The source says: (§1) Full length cDNAs of several 17β-HSDs type 1 originating from different species were cloned either into the pQE30 vector (human 17β-HSD 1, coding for acc. no. NP_000404) for expression as His-Tag protein or into a modified pGex-2T vector [63] (mouse 17β-HSD 1, acc. no. NP_034605; rat 17β-HSD 1, acc. no. NP_036983; marmoset 17β-HSD 1, acc. no. AAG01115; porcine 17β-HSD 1, acc. no. NP_001121944) for expression as GST-fusion proteins. The marmoset 17β-HSD 1 enzyme sequence was updated by the missing N-terminal part (AF272013) and the new porcine sequence was submitted to GenBank (NP_001121944). Human 17β-HSDs 2, 4, 5 (AKR1C3, the latter kindly provided by Dr. T. Penning) and 7 were all cloned into the modified pGEX-2T vector. For 17β-HSD 4 only the SDR-domain converting the steroids was subcloned. Plasmids were transformed into E.coli BL21 DE3 Codon Plus RP (Stratagene) and enzyme expression was induced by 0.5 mM IPTG. After 4h incubation at 37°C with continuous shaking bacteria were pelleted by centrifugation at 10.000×g. Pellets were stored until use at −20°C.
(§2) The bacteria containing recombinant enzymes were resuspended in PBS and enzymatic assays were performed in 100 mM sodium phosphate buffer at pH 6.6 for the reductive reaction and at pH 7.7 for the oxidative reaction. […] All substrates were purchased from NEN/Perkin Elmer. The cofactors NADPH (Sigma; for reductive reactions) and NAD^+ (Serva, for oxidative reactions) were used at final concentrations of 0.5 mg/ml. […] The incubation at 37°C was stopped with 0.21 M ascorbic acid in methanol∶acetic acid 99∶1 (v∶v) after the time needed to convert approximately 30% of the substrate in a control assay with 1% DMSO, without inhibitor candidates. […] The solvent used was acetonitrile∶water (43∶57, v∶v) at a flow rate of 1 ml/min. Radioactivity was detected by online-scintillation counting (Berthold LB506D) after mixing with ReadyFlowIII (Beckman). Conversion was calculated from integration of substrate and product peaks. […] All assays were run in duplicates of two independent experiments and mean values are reported. The IC50 values were determined by the One Ligand Binding model of SigmaPlot kinetics module.

For a further test, the target named is T2, mouse 17β-HSD 1 (Mus musculus, UniProt P51656).
T2 construct: Full length cDNAs of several 17β-HSDs type 1 originating from different species were cloned; made in house; host or cells: E.coli BL21 DE3 Codon Plus RP
T2 sequence (P51656 1-344): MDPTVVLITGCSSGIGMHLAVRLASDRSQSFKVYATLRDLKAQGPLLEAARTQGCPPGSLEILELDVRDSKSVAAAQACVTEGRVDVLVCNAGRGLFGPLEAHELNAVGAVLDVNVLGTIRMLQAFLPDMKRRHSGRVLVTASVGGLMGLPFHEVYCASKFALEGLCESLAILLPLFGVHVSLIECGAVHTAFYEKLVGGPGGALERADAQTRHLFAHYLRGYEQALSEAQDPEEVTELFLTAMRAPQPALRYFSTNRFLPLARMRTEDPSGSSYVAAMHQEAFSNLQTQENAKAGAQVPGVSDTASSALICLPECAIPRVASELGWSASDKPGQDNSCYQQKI
Kind of test: In vitro enzymatic activity, recombinant mouse 17β-HSD 1. Conditions: 2 µM compound, 15 nM 3H-estrone, read-out: Observed % inhibition.
From the text: as §1, §2

For another test, the target named is T3, human 17β-HSD 5 (AKR1C3) (Homo sapiens, UniProt P42330).
T3 construct: made in house; host or cells: E.coli BL21 DE3 Codon Plus RP
T3 sequence (P42330 1-323): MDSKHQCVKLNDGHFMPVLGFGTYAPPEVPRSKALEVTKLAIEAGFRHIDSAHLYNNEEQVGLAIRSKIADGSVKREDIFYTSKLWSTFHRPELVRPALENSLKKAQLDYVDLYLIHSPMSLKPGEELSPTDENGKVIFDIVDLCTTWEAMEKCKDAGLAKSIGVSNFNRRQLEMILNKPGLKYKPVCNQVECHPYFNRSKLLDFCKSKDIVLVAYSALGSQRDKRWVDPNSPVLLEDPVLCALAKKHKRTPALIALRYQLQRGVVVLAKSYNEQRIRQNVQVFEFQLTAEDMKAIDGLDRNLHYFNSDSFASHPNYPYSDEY
The test can be described thus: In vitro enzymatic activity, recombinant human 17β-HSD 5 (androstenedione reduction). Conditions: 2 µM compound, 21 nM 3H-androstenedione, NADPH, pH 6.6.
From the text: as §1, §2

For a further test, the target named is T4, marmoset 17β-HSD 1 (Callithrix jacchus, UniProt Q9GME2).
T4 sequence (Q9GME2 1-314): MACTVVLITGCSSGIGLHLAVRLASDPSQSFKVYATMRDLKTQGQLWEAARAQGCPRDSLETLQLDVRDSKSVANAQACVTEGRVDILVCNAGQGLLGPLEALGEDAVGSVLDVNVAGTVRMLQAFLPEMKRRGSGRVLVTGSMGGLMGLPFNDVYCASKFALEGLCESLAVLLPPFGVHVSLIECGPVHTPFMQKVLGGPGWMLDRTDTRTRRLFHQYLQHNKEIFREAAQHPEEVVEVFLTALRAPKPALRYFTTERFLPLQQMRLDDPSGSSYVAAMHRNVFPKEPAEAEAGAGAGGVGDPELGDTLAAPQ
The test can be described thus: In vitro enzymatic activity, recombinant marmoset 17β-HSD 1. Conditions: for inhibition at 2 µM: marmoset 17β-HSD 1, 2 µM compound, 15 nM 3H-estrone, read-out: Observed % inhibition.
From the text: as §1, §2

The target in the next test is T5, human 17β-HSD 1 (Homo sapiens, UniProt P14061).
T5 construct: Full length cDNAs of several 17β-HSDs type 1 originating from different species were cloned; made in house; host or cells: E.coli BL21 DE3 Codon Plus RP
T5 sequence (P14061 1-328): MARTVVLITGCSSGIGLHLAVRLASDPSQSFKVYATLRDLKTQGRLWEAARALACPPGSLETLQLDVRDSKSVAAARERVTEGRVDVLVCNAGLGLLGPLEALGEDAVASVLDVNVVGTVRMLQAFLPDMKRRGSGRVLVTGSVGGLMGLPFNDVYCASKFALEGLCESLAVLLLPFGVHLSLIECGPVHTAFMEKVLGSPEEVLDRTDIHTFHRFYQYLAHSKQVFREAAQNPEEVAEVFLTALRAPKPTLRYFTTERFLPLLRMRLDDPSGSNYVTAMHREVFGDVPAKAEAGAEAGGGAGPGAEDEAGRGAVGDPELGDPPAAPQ
The test can be described thus: In vitro enzymatic activity, recombinant human 17β-HSD 1 (estrone reduction). Conditions: for specificity for human 17β-HSD 1 over human 17β-HSD 2, 4, 5 and 7 (in words) / inhibition of the human 17β-HSD 1 reductive activity (in words): 2 µM; for specificity for human 17β-HSD 1 over human 17β-HSD 2, 4, 5 and 7 (in words): Figure 2, Table 3; for inhibition at 2 µM: human 17β-HSD 1, 2 µM compound, 15 nM 3H-estrone, NADPH, pH 6.6, read-out: Observed % inhibition; for inhibition of the human 17β-HSD 1 reductive activity (in words): Figure 2; for IC50: Human 17β-HSD 1, 0.005 µM to 5 µM inhibitor.
From the text: as §1, §2

Molecules are shown by their SMILES. Entries after “also recorded” stand apart in the source; their conditions may differ.

With `C[C@]12CC[C@@H]3c4ccc(O)cc4CC[C@H]3[C@@H]1[C@@H](CNC(=O)c1ccc(F)cc1)CC2=O` [Compound 1], the inhibition at 2 µM on rat 17β-HSD 1 was found to be 47.1%; on mouse 17β-HSD 1 it was 27%; at marmoset 17β-HSD 1, 30.6%; at human 17β-HSD 1, 63.6%. The Observed % inhibition at human 17β-HSD 5 (AKR1C3) amounted to 21.6%. In addition, the “specificity for human 17β-HSD 1 over human 17β-HSD 2, 4, 5 and 7 (in words)” value on human 17β-HSD 1 is “most specific inhibitors”.

`C[C@]12CC[C@@H]3c4ccc(O)cc4CC[C@H]3[C@@H]1[C@@H](CCCC(=O)N1CCOCC1)CC2=O` [Compound 2]: the inhibition at 2 µM at rat 17β-HSD 1 was found to be 40.3%. Moreover, at mouse 17β-HSD 1, the inhibition at 2 µM is -1.5%. At human 17β-HSD 5 (AKR1C3), the Observed % inhibition is 33.9%. Further, at marmoset 17β-HSD 1, the inhibition at 2 µM amounted to 60.3%. On human 17β-HSD 1, the “inhibition of the human 17β-HSD 1 reductive activity (in words)” value is recorded as “high inhibition”; the “specificity for human 17β-HSD 1 over human 17β-HSD 2, 4, 5 and 7 (in words)” value was “very low inhibition of the other human 17β-HSDs; also recorded: most specific inhibitors”; the IC50 came out at 87.4 nM; the inhibition at 2 µM is 94.7%.

Take `Cc1cnc(NC(=O)CC[C@@H]2CC(=O)[C@@]3(C)CC[C@@H]4c5ccc(O)cc5CC[C@H]4[C@H]23)s1` [Compound 3]: on rat 17β-HSD 1, the inhibition at 2 µM turned out to be 5.3%. For the same compound, the inhibition at 2 µM at mouse 17β-HSD 1 amounted to 27%. The Observed % inhibition at human 17β-HSD 5 (AKR1C3) is reported as 29.3%. On marmoset 17β-HSD 1, the IC50 came to 95.3 nM and the inhibition at 2 µM was determined as 98.5%. Further, at human 17β-HSD 1, the “inhibition of the human 17β-HSD 1 reductive activity (in words)” value is reported as “high inhibition”; the “specificity for human 17β-HSD 1 over human 17β-HSD 2, 4, 5 and 7 (in words)” value is on record as “very low inhibition of the other human 17β-HSDs; also recorded: most specific inhibitors”; the IC50 was 1.3 nM; the inhibition at 2 µM was determined as 97.9%.

As for `COc1ccc(-c2cn(CCC[C@H]3CC(=O)[C@@]4(C)CC[C@@H]5c6ccc(O)cc6CC[C@H]5[C@H]34)nn2)cc1` [Compound 4], the inhibition at 2 µM at rat 17β-HSD 1 is 19.4%; on mouse 17β-HSD 1, 18.5%; at marmoset 17β-HSD 1 it was 85.2%; at human 17β-HSD 1 it was 95.8%. The Observed % inhibition at human 17β-HSD 5 (AKR1C3) came out at 93.5%.

As for `C[C@]12CC[C@@H]3c4ccc(O)cc4CC[C@H]3[C@@H]1C[C@H](CC(=O)NCc1cccnc1)C2=O` [Compound 5, reference compound], the inhibition at 2 µM is -2.4% at rat 17β-HSD 1, 3.2% at mouse 17β-HSD 1, 45.6% on marmoset 17β-HSD 1 and 100% on human 17β-HSD 1. The Observed % inhibition on human 17β-HSD 5 (AKR1C3) stood at 50.6%.
